# From publication PMC10985088, “Synthesis and biological evaluation of echinomycin analogues as potential colon cancer agent” (Scientific Reports, 2024)
# Key:
# [1] = Investigation of maximum tolerated dose (body weight of mice); format: in vivo, mouse; settings: 14 days
# Description: (§1) Toxicity Body weight change is an indicator of systemic toxicity. Accordingly, the body weights of mice intraperitoneally treated with different doses (0.04 and 0.4 µg/mouse) of either 1 or 3 were measured (Fig. S1). […] A blood hematological examination (including nineteen parameters) was also conducted on these mice on Day 14 (Fig. S2). There were no significant changes in almost any of the parameters in the mice treated with either 1 or 3 at doses of 0.04 or 0.4 µg/mouse.
# [2] = Hepatic microsomal stability assay, human; format: in vitro ADME; settings: 30 min; for CLint scaled: microsomes, 1 μM; for CLint scaled / CLint scaled at 1 μM: 0.2 mg/mL microsomes, 37 °C; for CLint scaled at 1 μM: human liver microsomes, pH 7.4, 1 μM
# Description: (§2) Before investigating the in vivo efficacy of 3, its metabolic stability was evaluated by treatment with human or mouse liver microsomes at 37 °C for 30 min, and the remaining analogues were analyzed by LC–MS/MS (Table 3). […] This means that approximately 67% of 3 was unaffected by human liver microsomes.
# (§3) Basically, the analysis was performed using methods previously reported. Disappearance of the parent compound over time was measured by using the amount of drug at time zero as a reference. After 5 min of preincubation, 1 mM NADPH (final concentration, the same applies to the following, NADPH( +)) or 0.1 M phosphate buffer (pH 7.4, NADPH(−))) was added to a mixture containing 1 μM of the test compound, 0.2 mg/mL of human or mouse liver microsomes (Sekisui XenoTech LLC (Kansas City, KS)), 1 mM EDTA and 0.1 M phosphate buffer (pH 7.4) and incubated at 37 °C for 30 min by rotation at 60 rpm. An aliquot of 50 μL of the incubation mixture was sampled and added to 250 μL of chilled acetonitrile/internal standard (IS). After centrifuging for 15 min at 3150×g (4 °C), the supernatants were analyzed by LC–MS/MS. Hepatic microsomal stability (mL/min/kg, CLint) was calculated according to the previous report, using 48.8 and 45.4 mg MS protein/g liver and 25.7 and 87.5 g liver/kg body weight as scaling factors for human and mouse, respectively.
# (§4) Basically, the analysis was performed using methods previously reported. An LC-MS8060 instrument equipped with a Shimadzu Nexera series LC system (Shimadzu, Kyoto, Japan) was used. All compounds were analyzed in multi-reaction monitoring mode under electron spray ionization conditions. The analytical column used was a […] C18 MGIII (3 μm × 2.0 mmID × 35 mm; OSAKA SODA, Osaka, Japan) at 50 °C. The gradient mobile phase consisted of 0.1% formic acid in water (mobile phase A,) and 0.1% formic acid in acetonitrile (mobile phase B) at a total flow rate of 1 mL/min. The initial mobile phase composition was 10% B, which was held constant for 0.2 min, increased in a linear fashion to 90% B over 1 min, then held constant for 0.8 min, and finally brought back to the initial condition of 10% B over 0.01 min and re-equilibrated for 1 min. The transitions (precursor ion > product ion) of echinomycin, 3 and IS (methyl testosterone) are 1101.45 > 1053.5 (positive), 1083.5 > 523.95 (negative), and 303.1 > 109.1 (positive), respectively.
# SW620 cells = assay: WST-8 cytotoxicity assay, SW620; settings: read-out: IC50 SW620; human colon cancer cell, 72 h, mean ± SE (n = 3)
# Description: (§5) With a range of chromophore analogues in hand, their toxicity to SW620 cells was investigated by WST assays.
# (§6) Basically, the evaluation was performed using methods previously reported by our group[20],[23]. Cytotoxic activities of compounds against MIA PaCa-2 (American Type Culture Collection), SW620 (European Collection of Authenticated Cell Cultures) were measured by WST-8 assay according to manufacturer’s protocol. Briefly, cells (1 × 10^4 cells/well) in a 96-well plate were cultured in medium (for MIA PaCa-2, D-MEM (Wako, Japan) containing 10% fetal bovine serum (Funakoshi, Japan), 100 units/mL penicillin G and 100 µg/mL streptomycin (Wako, Japan), for SW620, RPMI-1640 (Wako, Japan) containing 10% fetal bovine serum, 100 units/mL penicillin G and 100 µg/mL streptomycin) were cultured at 37 °C for 24 h under 5% CO2 atmosphere. Then, cells were treated with test compounds (final DMSO concentration was 1%) at 37 °C for 72 h under 5% CO2 atmosphere. Then, cells were treated with a solution of Cell Counting Kit-8® (Dojindo, Japan) for 3 h. After that, cell viabilities were determined based on the measurement of absorption at 450 nm of the wells by using TECAN Infinite® M200 microplate reader. The results were expressed as a percentage of the negative control (cells treated with DMSO only), and that value was fixed at 100%.
# MIA PaCa-2 cells = settings: read-out: IC50 MIA PaCa-2; human pancreatic carcinoma cell, 72 h, mean ± SE (n = 3)
# Description: as §5, §6
# [3] = Serum biochemistry / blood examination of treated mice; format: in vivo; settings: 0.4 µg/mouse i.p., Day 14
# Description: as §1
# Male BALB/c mice (7 weeks old) were purchased from Charles River Laboratories Japan, Inc. Each compound was intraperitoneally injected daily for 14 days. […] Serum was collected by centrifuging blood at 5000 rpm for 10 min. Biochemistry was performed in Oriental Yeast Co., Ltd, Japan.
# [4] = Hepatic microsomal stability assay, mouse; format: in vitro ADME; settings: 0.2 mg/mL microsomes, 37 °C, 30 min; for CLint scaled: microsomes, 1 μM; for CLint scaled at 1 μM: mouse liver microsomes, pH 7.4, 1 μM
# Description: as §2, §3, §4
# [5] = NADPH(+), read-out: Metabolic stability (CLint) Human NADPH(+)
# [6] = NADPH(−), read-out: Metabolic stability (CLint) Human NADPH(−)
# [7] = NADPH(+), read-out: Metabolic stability (CLint) Mouse NADPH(+)
# [8] = NADPH(−), read-out: Metabolic stability (CLint) Mouse NADPH(−)
SMILES,"body weight ([1]; i.p. 0.04 and 0.4 µg/mouse, daily)","dose up to which no significant toxicity is shown ([1]; i.p. daily, body weight and blood examination)","maximum tolerated dose ([1]; i.p. daily, expected)","remaining at 0.5 h, 1 μM ([2]; liver microsomes, pH 7.4, 37 °C, in the presence of NADPH, read-out: fraction unaffected by human liver microsomes)","CLint scaled [2, 5]","CLint scaled [2, 6]",IC50 (SW620 cells),IC50 (MIA PaCa-2 cells),alanine aminotransferase (ALT) [3],aspartate aminotransferase (AST) [3],lactate dehydrogenase (LDH) [3],total bilirubin (T-BIL) [3],"CLint scaled [4, 7]","CLint scaled [4, 8]","CLint scaled at 1 μM [2, 5]","CLint scaled at 1 μM [2, 6]","CLint scaled at 1 μM [4, 7]","CLint scaled at 1 μM [4, 8]"
CC(C)[C@H]1C(=O)OC[C@@H](NC(=O)c2nc3ccccc3cc2O)C(=O)N[C@@H](C)C(=O)N(C)[C@H]2CSC[C@@H](C(=O)N1C)N(C)C(=O)[C@H](C)NC(=O)[C@H](NC(=O)c1nc3ccccc3cc1O)COC(=O)[C@H](C(C)C)N(C)C2=O [Compound 3],did not differ greatly from those of the control,≥ 0.04 µg/mouse,0.04 µg/mouse,~67%,83.7 mL/min/kg,45.1 mL/min/kg,0.85 ± 0.13 nM,1.4 ± 0.1 nM,increase,increase,increase,decrease,386 mL/min/kg,118 mL/min/kg,–,–,–,–
Cc1ncc2n1-c1ccc(Cl)cc1C(c1ccccc1F)=NC2 [Midazolam],–,–,–,–,–,–,–,–,–,–,–,–,–,–,435 mL/min/kg,< 22 mL/min/kg,4010 mL/min/kg,< 69.8 mL/min/kg
